Source: patent publication US20040029808A1, “Peptides capable of functioning as mimotopes for hormonal analytes” (priority 2000, published 2004)
Ends that are not written are not given here.

test system: MAb4155 (anti-estrone-3-glucuronide monoclonal antibody); experiment: ELISA testing of peptides on pins: binding of MAb4155 to peptides; design: species or system mouse; details: D-isomer reverse sequence versus L-isomer parent

Binding affinity relative to the parent sequence (SEQ ID NO:28) | Substance
equivalent | Asp-Tyr-Phe-Leu-Gly (DYFLG) [SEQ ID NO:37]

test system: MAb4155 (anti-estrone-3-glucuronide monoclonal antibody); experiment: as above; design: species or system mouse; details: Table 1; peptides on pins based on SEQ ID NO:2 (truncations, Ala/Gly replacement)
Method: Monoclonal antibodies MAb 4155 were expressed from the 4155 monoclonal cell line. The 4155 monoclonal cell line was prepared and screened according to the methods described by Gani et al., (3 Steroid Biochem. Molec. Biol. 48, 277-282 (1994)).
Peptides were synthesised in duplicate or triplicate from the C-terminus by solid phase peptide synthesis on the heads of polyethylene pins (Geysen et al., Strategies for epitope analysis using peptide synthesis. J. Immunol. Methods 102, 259-274 (1987)) using a Multipin Peptide Synthesis Kit (Chiron Mimotopes, Victoria, Australia). Pins were arranged in a plastic holder in the format of a 96-well microtitre plate.
All incubation steps were performed at room temperature (18-25° C.) by lowering the pins reagents dispensed into 96-well microtitre plates (Becton Dickinson, Calif., USA). Washing was accomplished by placing the block of pins in a bath of phosphate buffered saline (PBS) containing Tween 20™ (0.01% v/v) with agitation for four cycles of 5 min. Non-specific binding sites on the surface of the pins were blocked by incubating in PBS containing casein (1% w/v, 175 μl/well) for 1 h. MAb4155 was diluted in blocking buffer and the pins were incubated in the antibody solution (150 μl/well) for 18 h at 4° C. After washing, the pins were incubated in horseradish peroxidase (HRP)-conjugated rabbit anti-mouse immunoglobulin (Dako, High Wycombe, UK, 1/1000 in blocking buffer for 1 h at 150 μl/well). The pins were washed once more and then incubated in ABTS [2,2′-azino-bis (3ethylbenzothiazoline-6-sulphonic acid)] working substrate for 15 min (150 μl/well). ABTS was prepared as a 0.033% (w/v) solution in 0.1M citrate phosphate buffer (pH 4.5) with 33% hydrogen peroxide (1 μl/ml). Colour development was terminated by removal of the pins from the wells and was measured spectrophotometrically at 405 nm using a Milenia Kinetic Analyser™ (DPC, Llanberis, Wales).
In order to identify core binding regions, a set of peptides was synthesised on the heads of pins based on SEQ ID NO:2. […] In addition, a set of peptides was synthesised in which each residue of the lead sequence was replaced by Ala (or Gly if Ala already existed at that position) in order to assess the contribution of each residue to the binding event.
Additional core binding sequences were identified utilizing the amino acid sequence SEQ ID NO:8 and investigating the effect of systematic replacement of each residue by the other 19 naturally occurring amino acids using known techniques as exemplified in Verhoeyen et al., Construction of a reshaped HMFG1 antibody and comparison of its fine specificity with that of the parent mouse antibody. Immunology, 78, 364-370 (1993).

Substance | Relative Binding of MAb4155 to peptides as measured by ELISA
AAARGLFED [SEQ ID NO:14] | 1.5
AAEAGLFED [SEQ ID NO:15] | 2.0
AAERALFED [SEQ ID NO:16] | 1.5
AAERGAFED [SEQ ID NO:17] | 1.6
AAERGLFED [SEQ ID NO:2] | 2.0
AERGLFED [SEQ ID NO:11] | 1.5
AGERGLFED [SEQ ID NO:13] | 2.0
ERGLFED [SEQ ID NO:10] | 1.8
GAERGLFED [SEQ ID NO:12] | 1.9
Gly-Leu-Phe-Glu-Asp (GLFED) [SEQ ID NO:8] | 2.2
Leu-Phe-Glu-Asp (LFED) [SEQ ID NO:7] | 1.9
Phe-Glu-Asp (FED) [SEQ ID NO:6] | 2.0
RGLFED [SEQ ID NO:9] | 1.6

Further lines, results first:

Relative Binding of MAb4155 to peptides as measured by ELISA | Substance
1.0 | AAERGL [SEQ ID NO:73]
0.8 | AAERGLAED [SEQ ID NO:78]
1.0 | AAERGLF [SEQ ID NO:72]
1.8 | AAERGLFAD [SEQ ID NO:79]
1.0 | AAERGLFE [SEQ ID NO:71]
1.1 | AAERGLFEA [SEQ ID NO:80]
0.9 | Ala-Ala-Glu (AAE) [SEQ ID NO:76]
0.8 | Ala-Ala-Glu-Arg (AAER) [SEQ ID NO:75]
1.0 | Ala-Ala-Glu-Arg-Gly (AAERG) [SEQ ID NO:74]

same assay, conditions: Table 2; replacement analogues of SEQ ID NO:8, setting SEQ ID NO:8 to a Relative Binding of 100

Substance | Relative Binding of MAb4155 to peptides as measured by ELISA
Gly-Leu-Phe-Asp-Asp (GLFDD) [SEQ ID NO:23] | 121
Gly-Leu-Phe-Cys-Asp (GLFCD) [SEQ ID NO:22] | 335
Gly-Leu-Phe-Glu-Asp (GLFED) [SEQ ID NO:8] | 100
Gly-Leu-Phe-Ile-Asp (GLFID) [SEQ ID NO:25] | 169
Gly-Leu-Phe-Leu-Asp (GLFLD) [SEQ ID NO:26] | 138
Gly-Leu-Phe-Phe-Asp (GLFFD) [SEQ ID NO:24] | 184
Gly-Leu-Phe-Trp-Asp (GLFWD) [SEQ ID NO:27] | 578
Gly-Leu-Phe-Tyr-Asp (GLFYD) [SEQ ID NO:28] | 252
Gly-Leu-Trp-Glu-Asp (GLWED) [SEQ ID NO:21] | 207
Gly-Phe-Phe-Glu-Asp (GFFED) [SEQ ID NO:18] | 200
Gly-Trp-Phe-Glu-Asp (GWFED) [SEQ ID NO:19] | 343
Gly-Tyr-Phe-Glu-Asp (GYFED) [SEQ ID NO:20] | 220

Results, then the substance that gave them:

Relative Binding of MAb4155 to peptides as measured by ELISA | Substance
296 | Gly-Leu-Phe-Glu-Cys (GLFEC) [SEQ ID NO:29]
174 | Gly-Leu-Phe-Glu-Ile (GLFEI) [SEQ ID NO:31]
168 | Gly-Leu-Phe-Glu-Leu (GLFEL) [SEQ ID NO:32]
204 | Gly-Leu-Phe-Glu-Phe (GLFEF) [SEQ ID NO:30]
594 | Gly-Leu-Phe-Glu-Trp (GLFEW) [SEQ ID NO:34]
386 | Gly-Leu-Phe-Glu-Tyr (GLFEY) [SEQ ID NO:35]
177 | Gly-Leu-Phe-Glu-Val (GLFEV) [SEQ ID NO:33]
